Data as given in patent publication US20230146395A1, “Substituted Pyrimidines and Uses Thereof” (Verge Analytics, Inc., priority 2020, published 2023).

Tests used:
Assay type in all cases: biochemical
[1] = molecular target: T1, Full length human recombinant PIKFYVE (Homo sapiens, UniProt Q9Y2I7); experiment: Inhibition of PIKfyve (microfluidic electrophoresis kinase assay, PI3P/PS substrate); settings: 12 concentrations
T1 construct: Full length human recombinant PIKFYVE; purchased Carna Biosciences (Kobe, Japan); host or cells: baculovirus expression system
T1 sequence (Q9Y2I7 whole entry): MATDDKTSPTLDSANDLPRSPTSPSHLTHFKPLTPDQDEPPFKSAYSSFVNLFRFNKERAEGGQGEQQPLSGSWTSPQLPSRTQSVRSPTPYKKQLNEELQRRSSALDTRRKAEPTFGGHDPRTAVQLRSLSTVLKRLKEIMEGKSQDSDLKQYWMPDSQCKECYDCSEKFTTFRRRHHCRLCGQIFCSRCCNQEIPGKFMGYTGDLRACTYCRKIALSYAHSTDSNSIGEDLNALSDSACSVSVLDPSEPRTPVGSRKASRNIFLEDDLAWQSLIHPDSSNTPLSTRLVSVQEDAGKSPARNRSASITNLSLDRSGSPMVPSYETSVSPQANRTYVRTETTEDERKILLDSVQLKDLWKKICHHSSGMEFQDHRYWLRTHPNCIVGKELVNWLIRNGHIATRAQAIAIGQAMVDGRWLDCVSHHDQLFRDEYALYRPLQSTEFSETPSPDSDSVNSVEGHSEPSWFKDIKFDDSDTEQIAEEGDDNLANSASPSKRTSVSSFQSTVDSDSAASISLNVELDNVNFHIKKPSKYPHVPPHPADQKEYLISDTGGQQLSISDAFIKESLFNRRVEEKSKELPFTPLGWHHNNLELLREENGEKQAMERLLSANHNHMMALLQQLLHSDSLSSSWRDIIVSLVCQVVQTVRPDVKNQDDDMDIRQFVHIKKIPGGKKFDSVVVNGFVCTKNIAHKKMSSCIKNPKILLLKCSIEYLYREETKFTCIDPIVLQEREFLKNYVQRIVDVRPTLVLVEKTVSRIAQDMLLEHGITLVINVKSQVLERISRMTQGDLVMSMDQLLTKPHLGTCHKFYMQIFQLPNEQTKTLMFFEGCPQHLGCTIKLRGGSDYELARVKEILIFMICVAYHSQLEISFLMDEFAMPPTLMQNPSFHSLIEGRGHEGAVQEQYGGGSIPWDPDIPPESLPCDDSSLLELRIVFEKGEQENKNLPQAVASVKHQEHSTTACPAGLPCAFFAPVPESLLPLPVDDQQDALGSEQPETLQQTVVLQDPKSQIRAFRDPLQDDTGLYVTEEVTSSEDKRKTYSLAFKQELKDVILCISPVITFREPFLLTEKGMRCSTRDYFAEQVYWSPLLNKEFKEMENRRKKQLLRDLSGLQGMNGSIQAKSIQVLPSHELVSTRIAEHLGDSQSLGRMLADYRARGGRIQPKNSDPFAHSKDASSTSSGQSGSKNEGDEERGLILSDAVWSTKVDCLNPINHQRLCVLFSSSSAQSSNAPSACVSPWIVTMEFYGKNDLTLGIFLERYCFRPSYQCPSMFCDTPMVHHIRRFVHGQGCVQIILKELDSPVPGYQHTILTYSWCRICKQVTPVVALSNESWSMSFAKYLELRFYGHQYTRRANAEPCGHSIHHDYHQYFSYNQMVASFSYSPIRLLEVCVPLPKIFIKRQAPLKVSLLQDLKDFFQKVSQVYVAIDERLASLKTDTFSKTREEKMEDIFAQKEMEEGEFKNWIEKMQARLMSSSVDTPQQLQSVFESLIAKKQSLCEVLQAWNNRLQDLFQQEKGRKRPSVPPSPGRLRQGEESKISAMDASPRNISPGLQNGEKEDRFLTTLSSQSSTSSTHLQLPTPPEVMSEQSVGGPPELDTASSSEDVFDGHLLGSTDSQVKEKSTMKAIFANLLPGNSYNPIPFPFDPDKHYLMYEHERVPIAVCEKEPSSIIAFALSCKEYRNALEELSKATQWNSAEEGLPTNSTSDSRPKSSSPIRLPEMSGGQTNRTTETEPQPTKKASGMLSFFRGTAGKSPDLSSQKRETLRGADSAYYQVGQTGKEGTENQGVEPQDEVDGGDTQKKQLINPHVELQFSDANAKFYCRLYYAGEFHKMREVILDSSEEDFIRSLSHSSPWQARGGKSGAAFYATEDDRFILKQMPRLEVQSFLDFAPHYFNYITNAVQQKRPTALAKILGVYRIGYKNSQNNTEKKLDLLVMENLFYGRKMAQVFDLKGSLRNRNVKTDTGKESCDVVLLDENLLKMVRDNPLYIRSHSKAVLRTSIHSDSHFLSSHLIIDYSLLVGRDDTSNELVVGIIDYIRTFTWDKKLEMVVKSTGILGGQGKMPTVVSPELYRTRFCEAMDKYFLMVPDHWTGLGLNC
How it was run: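 GST-tagged full-length human PIKFYVE (baculovirus; 2 nM) with fluorescent PI3P/PS (1 μM PI3P) and […] in pH 7.5 HEPES with Mg2+/Mn2+, 1% DMSO, 3 h at room temperature. PI(3,5)P product/substrate ratio read by microfluidic electrophoresis; 12-point % inhibition versus no-enzyme and DMSO controls.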

[2] = molecular target: T2, PI3Kα (Homo sapiens, UniProt P42336); experiment: Inhibition of PI3K isoforms: PI3Kα (microfluidic electrophoresis kinase assay, PIP2/PS substrate); settings: p110α/p85α, ATP 90 μM; read-out: PI3Ka IC50
T2 construct: Full-length N-terminal; FLAG (N); host or cells: SF9 cells (baculovirus)
T2 sequence (P42336 whole entry, canonical isoform): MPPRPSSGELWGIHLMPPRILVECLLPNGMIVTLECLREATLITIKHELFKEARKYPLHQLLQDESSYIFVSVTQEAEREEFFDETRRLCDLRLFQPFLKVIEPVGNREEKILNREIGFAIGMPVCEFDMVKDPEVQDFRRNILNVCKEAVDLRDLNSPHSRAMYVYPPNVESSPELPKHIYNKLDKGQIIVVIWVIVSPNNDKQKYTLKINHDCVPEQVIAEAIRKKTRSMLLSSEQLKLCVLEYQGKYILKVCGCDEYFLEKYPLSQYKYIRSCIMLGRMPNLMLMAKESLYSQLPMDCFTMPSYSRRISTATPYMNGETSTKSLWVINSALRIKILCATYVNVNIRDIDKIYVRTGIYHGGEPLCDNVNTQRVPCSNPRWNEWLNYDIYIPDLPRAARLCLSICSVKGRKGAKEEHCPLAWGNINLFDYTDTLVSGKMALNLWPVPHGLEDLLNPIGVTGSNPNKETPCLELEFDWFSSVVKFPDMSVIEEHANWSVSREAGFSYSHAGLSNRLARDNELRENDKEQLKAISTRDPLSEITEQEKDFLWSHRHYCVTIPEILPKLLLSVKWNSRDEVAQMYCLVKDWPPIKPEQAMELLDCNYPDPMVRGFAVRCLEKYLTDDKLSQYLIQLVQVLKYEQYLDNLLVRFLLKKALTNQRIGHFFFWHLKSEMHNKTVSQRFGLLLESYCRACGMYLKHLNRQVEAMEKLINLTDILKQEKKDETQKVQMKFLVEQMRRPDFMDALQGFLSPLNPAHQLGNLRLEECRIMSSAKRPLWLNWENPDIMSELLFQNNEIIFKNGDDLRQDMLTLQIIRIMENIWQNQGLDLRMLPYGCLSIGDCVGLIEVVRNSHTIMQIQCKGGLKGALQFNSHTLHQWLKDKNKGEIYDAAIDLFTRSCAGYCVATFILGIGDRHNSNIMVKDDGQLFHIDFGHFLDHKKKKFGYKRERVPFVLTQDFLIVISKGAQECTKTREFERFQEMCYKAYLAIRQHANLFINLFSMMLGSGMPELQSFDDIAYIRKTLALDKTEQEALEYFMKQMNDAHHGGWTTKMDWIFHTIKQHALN
T2 sequence (P27986 whole entry partner, canonical isoform): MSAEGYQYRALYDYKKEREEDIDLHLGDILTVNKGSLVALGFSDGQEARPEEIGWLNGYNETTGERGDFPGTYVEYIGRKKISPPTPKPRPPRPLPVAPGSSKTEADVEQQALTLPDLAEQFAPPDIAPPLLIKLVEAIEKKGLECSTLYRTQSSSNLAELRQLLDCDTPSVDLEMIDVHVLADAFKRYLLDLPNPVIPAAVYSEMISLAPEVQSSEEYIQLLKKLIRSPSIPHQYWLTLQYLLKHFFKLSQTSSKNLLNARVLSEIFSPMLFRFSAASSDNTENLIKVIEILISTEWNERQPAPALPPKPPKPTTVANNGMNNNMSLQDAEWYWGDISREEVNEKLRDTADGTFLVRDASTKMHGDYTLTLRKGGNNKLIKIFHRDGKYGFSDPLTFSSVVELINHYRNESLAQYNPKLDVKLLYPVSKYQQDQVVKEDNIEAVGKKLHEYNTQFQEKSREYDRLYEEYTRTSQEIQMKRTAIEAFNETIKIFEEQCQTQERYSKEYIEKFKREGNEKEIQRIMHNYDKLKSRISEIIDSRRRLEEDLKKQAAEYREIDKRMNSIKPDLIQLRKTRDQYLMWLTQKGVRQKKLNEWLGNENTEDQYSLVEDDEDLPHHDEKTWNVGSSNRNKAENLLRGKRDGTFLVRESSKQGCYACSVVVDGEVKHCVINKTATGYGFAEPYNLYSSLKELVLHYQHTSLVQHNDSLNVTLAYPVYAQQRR
Experimental: The kinase substrate was prepared by mixing and sonicating fluorescently-labeled phosphatidylinositol 4,5-phosphate (PIP2) with phospho-L-serine (PS) at 1:20 ratio in 50 mM HEPES buffer pH7.5.
The kinase reactions were assembled in 384-well plates (Greiner) in a total volume of […] as follows. The kinase proteins were pre-diluted in an assay buffer comprising 50 mM HEPES, pH 7.5, 0.012% CHAPS, 1 mM DTT, 10 mM Na3VaO4, 10 mM 3-GP, 3 mM MgCl2, and 40 mM NaCl2, and dispensed into a 384-well plate (10 μL per well). Test compounds were serially pre-diluted in DMSO and added to the protein samples by acoustic dispensing (Labcyte Echo). The concentration of DMSO was equalized to 1% in all samples. All test compounds were tested at 12 concentrations. The control samples (0%-inhibition in the absence of inhibitor, DMSO only) and 100%-inhibition (in the absence of enzyme) were assembled in replicates of four and were used to calculate %-inhibition in the presence of test compounds. The reactions were initiated by addition of 10 μL of the PIP2/PS substrate supplemented with ATP. The final concentration of enzymes was 0.5 nM (PI3Kα), 1 nM (PI3Kβ), 10 nM (PI3Kγ), and 0.25 nM (PI3Kδ). The final concentration of ATP was 90 μM (PI3Kα), 60 μM (PI3Kβ), 100 μM (PI3Kγ), and 90 μM (PI3Kδ). The final concentration of PIP2/PS substrate was 1 μM (PIP2). The kinase reactions were allowed to proceed for 3 h at room temperature. Following incubation, the reactions were quenched by addition of 50 μL of termination buffer (100 mM HEPES, pH 7.5, 0.01% Triton X-100, 20 mM EDTA). Terminated plates were analyzed on a microfluidic electrophoresis instrument (Caliper LabChip® 3000, Caliper Life Sciences/Perkin Elmer). The change in the relative fluorescence intensity of the PI(4,5)P substrate and PI(3,4,5)P product peaks was measured. The activity in each test sample was determined as the product to sum ratio (PSR): P/(S+P), where P is the peak height of the product, and S is the peak height of the substrate. Percent inhibition (Pinh) was determined using the following equation:
Pinh=(PSR0% inh−PSRcompound)/(PSR0% inh−PSR100% inh)*100
in which PSRcompound is the product/sum ratio in the presence of compound, PSR0% inh is the product/sum ratio in the absence of compound, and the PSR100% inh is the product/sum ratio in the absence of the enzyme.

[3] = molecular target: T3, PI3Kδ (Homo sapiens, UniProt O00329); experiment: Inhibition of PI3K isoforms: PI3Kδ (microfluidic electrophoresis kinase assay, PIP2/PS substrate); settings: p110δ/p85α, ATP 90 μM; read-out: PI3Kd IC50
T3 construct: Full-length N-terminal; GST (N); host or cells: SF9 cells (baculovirus)
T3 sequence (O00329 whole entry, canonical isoform): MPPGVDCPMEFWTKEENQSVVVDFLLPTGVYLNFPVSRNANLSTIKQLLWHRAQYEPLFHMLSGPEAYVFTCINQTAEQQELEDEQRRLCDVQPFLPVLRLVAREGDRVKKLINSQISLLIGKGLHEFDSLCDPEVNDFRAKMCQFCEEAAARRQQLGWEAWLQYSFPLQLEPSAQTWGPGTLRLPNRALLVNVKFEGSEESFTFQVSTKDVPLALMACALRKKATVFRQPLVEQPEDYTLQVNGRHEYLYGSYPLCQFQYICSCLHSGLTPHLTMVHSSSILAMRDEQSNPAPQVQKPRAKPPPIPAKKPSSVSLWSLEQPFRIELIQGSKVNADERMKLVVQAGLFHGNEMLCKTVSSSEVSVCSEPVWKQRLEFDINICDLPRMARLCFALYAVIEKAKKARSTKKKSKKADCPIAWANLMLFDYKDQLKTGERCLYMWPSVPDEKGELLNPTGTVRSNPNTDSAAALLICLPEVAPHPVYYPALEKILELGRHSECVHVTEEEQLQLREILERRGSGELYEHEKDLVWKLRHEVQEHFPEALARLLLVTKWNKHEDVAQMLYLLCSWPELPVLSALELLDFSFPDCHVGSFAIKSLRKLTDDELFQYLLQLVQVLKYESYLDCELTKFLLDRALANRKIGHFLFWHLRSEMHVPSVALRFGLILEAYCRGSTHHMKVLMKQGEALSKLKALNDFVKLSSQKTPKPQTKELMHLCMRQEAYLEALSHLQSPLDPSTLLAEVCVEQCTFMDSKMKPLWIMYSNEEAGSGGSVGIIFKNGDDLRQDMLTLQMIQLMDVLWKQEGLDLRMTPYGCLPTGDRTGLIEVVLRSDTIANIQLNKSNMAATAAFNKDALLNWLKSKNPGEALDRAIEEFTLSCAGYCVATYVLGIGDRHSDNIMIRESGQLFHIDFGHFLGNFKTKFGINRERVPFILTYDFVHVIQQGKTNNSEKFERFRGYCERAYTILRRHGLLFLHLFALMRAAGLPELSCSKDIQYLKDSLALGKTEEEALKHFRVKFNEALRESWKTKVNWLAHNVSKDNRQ
T3 sequence (P27986 whole entry partner, canonical isoform): as the sequence (P27986 whole entry partner, canonical isoform) above
Experimental: The kinase substrate was prepared by mixing and sonicating fluorescently-labeled phosphatidylinositol 4,5-phosphate (PIP2) with phospho-L-[…]:20 ratio in 50 mM HEPES buffer pH7.5. The kinase reactions were assembled in 384-well plates (Greiner) in a total volume of […] as follows. The kinase proteins were pre-diluted in an assay buffer comprising 50 mM HEPES, pH 7.5, 0.012% CHAPS, 1 mM DTT, 10 mM Na3VaO4, 10 mM 3-GP, 3 mM MgCl2, and 40 mM NaCl2, and dispensed into a 384-well plate (10 μL per well). Test compounds were serially pre-diluted in DMSO and added to the protein samples by acoustic dispensing (Labcyte Echo). The concentration of DMSO was equalized to 1% in all samples. All test compounds were tested at 12 concentrations. The control samples (0%-inhibition in the absence of inhibitor, DMSO only) and 100%-inhibition (in the absence of enzyme) were assembled in replicates of four and were used to calculate %-inhibition in the presence of test compounds. The reactions were initiated by addition of 10 μL of the PIP2/PS substrate supplemented with ATP. The final concentration of enzymes was 0.5 nM (PI3Kα), 1 nM (PI3Kβ), 10 nM (PI3Kγ), and 0.25 nM (PI3Kδ). The final concentration of ATP was 90 μM (PI3Kα), 60 μM (PI3Kβ), 100 μM (PI3Kγ), and 90 μM (PI3Kδ). The final concentration of PIP2/PS substrate was 1 μM (PIP2). The kinase reactions were allowed to proceed for 3 h at room temperature. Following incubation, the reactions were quenched by addition of 50 μL of termination buffer (100 mM HEPES, pH 7.5, 0.01% Triton X-100, 20 mM EDTA). Terminated plates were analyzed on a microfluidic electrophoresis instrument (Caliper LabChip® 3000, Caliper Life Sciences/Perkin Elmer). The change in the relative fluorescence intensity of the PI(4,5)P substrate and PI(3,4,5)P product peaks was measured. The activity in each test sample was determined as the product to sum ratio (PSR): P/(S+P), where P is the peak height of the product, and S is the peak height of the substrate. Percent inhibition (Pinh) was determined using the following equation: Pinh=(PSR0% inh-PSRcompound)/(PSR0% inh-PSR100% inh)*100 in which PSRcompound is the product/sum ratio in the presence of compound, PSR0% inh is the product/sum ratio in the absence of compound, and the PSR100% inh is the product/sum ratio in the absence of the enzyme. […] (Pinh versus compound concentration) were fitted by a four-parameter sigmoid dose-response model using XLfit software (IDBS).

Compound | IC50 [1] | IC50 [2] | IC50 [3]
CNC(=O)c1cc2nc(Nc3cc(CC4CCCC4)n[nH]3)nc(N3CCOCC3)c2o1 [Compound 84, 2-((5-(cyclopentylmethyl)-1H-pyrazol-3-yl)amino)-N-methyl-4-morpholinofuro[3,2-d]pyrimidine-6-carboxamide, hydrogen chloride] | ≥ 20 µM | 4.53 µM | 0.218 µM
CCc1cc(Nc2nc(N3CCOCC3)c3oc(C(=O)NC)cc3n2)[nH]n1 [Compound 87, 2-((5-ethyl-1H-pyrazol-3-yl)amino)-N-methyl-4-morpholinofuro[3,2-d]pyrimidine-6-carboxamide, hydrogen chloride] | ≥ 20 µM | 3.48 µM | 

Stronger by IC50 [1], values ahead:

IC50 [1] | IC50 [2] | IC50 [3] | Compound
0.142 µM | 4.14 µM | 0.164 µM | c1cc(-c2cc3nc(Nc4cc(C5CCC5)n[nH]4)nc(N4CCOCC4)c3o2)ccn1 [Compound 70, N-(5-cyclobutyl-1H-pyrazol-3-yl)-4-morpholino-6-(pyridin-4-yl)furo[3,2-d]pyrimidin-2-amine, hydrogen chloride]
5.5 µM | 5.52 µM | 0.454 µM | CNC(=O)c1cc2nc(Nc3cc(C4CCC4)n[nH]3)nc(N3CCOCC3)c2o1 [Compound 80, 2-((5-cyclobutyl-1H-pyrazol-3-yl)amino)-N-methyl-4-morpholinofuro[3,2-d]pyrimidine-6-carboxamide, hydrogen chloride]
4.09 µM | 3.72 µM |  | CNC(=O)c1cc2nc(Nc3cc(C4CCCC4)n[nH]3)nc(N3CCOCC3)c2o1 [Compound 83, 2-((5-cyclopentyl-1H-pyrazol-3-yl)amino)-N-methyl-4-morpholinofuro[3,2-d]pyrimidine-6-carboxamide, hydrogen chloride]
